Laboratory results published in ChEMBL document CHEMBL2177034, “Inhibition of hypoxia inducible factor-2 transcription: isolation of active modulators from marine sponges” (J Nat Prod, 2012).
Calls of active or inactive are those of the source.

Tests used:
786-0 [1] = assay: Downregulation of HIF2alpha mRNA expression in human 786-0 cells at 21 uM after 48 hrs by RT-PCR analysis; assay type: functional, cell-based
786-0 [2] = assay: Downregulation of HIF1alpha mRNA expression in human 786-0 cells at 21 uM after 48 hrs by RT-PCR analysis; assay type: functional, cell-based
[3] = Downregulation of HIF1alpha mRNA expression in human SK-RC-28 cells at 21 uM after 48 hrs by RT-PCR analysis; assay type: functional, cell-based
786-0 [4] = assay: Inhibition of HIF-mediated VEGFA protein expression in serum deprived human 786-0 cells at 21 uM after 48 hrs relative to control; assay type: cell-based
786-0 [5] = assay: Downregulation of actin mRNA expression in human […] at 21 uM after 48 hrs by RT-PCr analysis; assay type: ADME, cell-based; conditions: 786-0, 48 h
[6] = Cytotoxicity against human SK-RC-28 cells expressing HIF1alpha after 2 days by XTT assay; assay type: functional, cell-based; conditions: 48 h
[7] = molecular target: T1, Endothelial PAS domain-containing protein 1 (Homo sapiens, UniProt Q99814); assay: Inhibition of HIF2alpha in human RCC4 cells coexpressing HIF1alpha assessed as reduction in GLUT1 mRNA expression at 21 uM after 48 hrs by RT-PCR analysis; assay type: cell-based
T1 sequence (Q99814 whole entry, the tested form may be a part): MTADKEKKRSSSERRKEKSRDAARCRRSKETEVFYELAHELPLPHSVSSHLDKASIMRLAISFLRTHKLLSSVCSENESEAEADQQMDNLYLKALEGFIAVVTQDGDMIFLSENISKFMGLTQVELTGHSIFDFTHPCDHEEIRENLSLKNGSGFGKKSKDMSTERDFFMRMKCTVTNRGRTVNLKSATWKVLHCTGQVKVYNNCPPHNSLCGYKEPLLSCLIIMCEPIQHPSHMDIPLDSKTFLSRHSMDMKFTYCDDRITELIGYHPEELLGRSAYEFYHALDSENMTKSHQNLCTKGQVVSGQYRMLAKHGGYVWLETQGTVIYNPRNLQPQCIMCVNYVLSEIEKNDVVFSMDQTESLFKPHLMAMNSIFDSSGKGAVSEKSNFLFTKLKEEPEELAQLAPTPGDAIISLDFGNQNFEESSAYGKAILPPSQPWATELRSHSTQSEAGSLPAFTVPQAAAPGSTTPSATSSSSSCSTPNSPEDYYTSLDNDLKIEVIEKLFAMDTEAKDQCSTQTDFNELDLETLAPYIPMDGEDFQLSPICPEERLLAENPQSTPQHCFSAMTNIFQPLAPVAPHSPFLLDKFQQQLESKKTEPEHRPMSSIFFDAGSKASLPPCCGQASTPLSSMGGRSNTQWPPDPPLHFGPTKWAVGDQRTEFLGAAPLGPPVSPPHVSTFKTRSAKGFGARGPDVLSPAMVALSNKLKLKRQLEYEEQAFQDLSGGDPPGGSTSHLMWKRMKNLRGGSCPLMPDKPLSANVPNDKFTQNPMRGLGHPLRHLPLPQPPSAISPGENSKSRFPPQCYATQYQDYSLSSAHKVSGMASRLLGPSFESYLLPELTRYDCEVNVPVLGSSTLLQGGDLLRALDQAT

[8] = molecular target: Hypoxia-inducible factor 1-alpha (Homo sapiens) (UniProt Q16665); assay: Inhibition of HIF1alpha in human RCC4 cells coexpressing HIF2alpha assessed as decrease in carbonic anhydrase 9 mRNA expression at 21 uM after 48 hrs by RT-PCR analysis; assay type: cell-based
Hypoxia-inducible factor 1-alpha (Homo sapiens), sequence (Q16665 whole entry, looked up): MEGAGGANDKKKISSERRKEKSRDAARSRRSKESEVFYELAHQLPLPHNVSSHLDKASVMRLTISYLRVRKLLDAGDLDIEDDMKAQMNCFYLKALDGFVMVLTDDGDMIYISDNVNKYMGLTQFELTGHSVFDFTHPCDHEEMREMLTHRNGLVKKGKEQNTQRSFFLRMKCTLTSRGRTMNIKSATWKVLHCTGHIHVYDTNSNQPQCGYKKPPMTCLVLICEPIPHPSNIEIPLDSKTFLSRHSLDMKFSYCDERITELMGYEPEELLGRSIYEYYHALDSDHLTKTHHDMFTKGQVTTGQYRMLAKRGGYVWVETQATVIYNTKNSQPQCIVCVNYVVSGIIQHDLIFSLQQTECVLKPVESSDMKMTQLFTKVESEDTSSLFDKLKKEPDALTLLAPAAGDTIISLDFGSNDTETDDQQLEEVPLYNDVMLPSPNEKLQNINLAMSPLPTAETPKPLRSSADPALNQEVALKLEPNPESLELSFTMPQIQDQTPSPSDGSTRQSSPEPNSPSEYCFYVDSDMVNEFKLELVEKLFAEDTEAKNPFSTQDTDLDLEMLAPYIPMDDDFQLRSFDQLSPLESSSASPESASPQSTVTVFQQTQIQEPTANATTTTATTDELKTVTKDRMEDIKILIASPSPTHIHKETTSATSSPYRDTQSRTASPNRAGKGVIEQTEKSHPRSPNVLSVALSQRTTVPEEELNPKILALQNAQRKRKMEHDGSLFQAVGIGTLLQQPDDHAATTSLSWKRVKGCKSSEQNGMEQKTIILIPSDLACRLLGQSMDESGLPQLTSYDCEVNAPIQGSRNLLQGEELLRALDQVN

[9] = Downregulation of GLUT1 mRNA expression in human SK-RC-28 cells at 21 uM after 48 hrs by RT-PCR analysis; assay type: functional, cell-based
[10] = molecular target: T1, Endothelial PAS domain-containing protein 1; assay: Inhibition of HIF2alpha in human 786-0 cells assessed as reduction in GLUT1 mRNA expression at 21 uM after 48 hrs by RT-PCR analysis; assay type: cell-based
[11] = Downregulation of CCND1 mRNA expression in human SK-RC-28 cells at 21 uM after 48 hrs by RT-PCR analysis; assay type: functional, cell-based
total protein expression = assay: Inhibition of total protein expression in serum deprived human 786-0 cells at 20 uM after 48 hrs relative to control; assay type: cell-based; conditions: 786-0 cells
[12] = molecular target: Hypoxia-inducible factor 1-alpha (Homo sapiens) (UniProt Q16665); assay: Inhibition of HIF1alpha in human SK-RC-28 cells assessed as reduction in carbonic anhydrase 9 expression at 21 uM after 48 hrs by RT-PCR analysis; assay type: cell-based
[13] = Downregulation of actin mRNA expression in human SK-RC-28 cells expressing HIF2alpha at 21 uM after 48 hrs by RT-PCr analysis; assay type: ADME, cell-based
[14] = molecular target: Hypoxia inducible factors; HIF-1-alpha, HIF-2-alpha (Homo sapiens) (UniProt Q16665+Q99814); assay: Inhibition of HIF1alpha/2alpha in human RCC4 cells assessed as reduction in VEGFA mRNA expression at 21 uM after 48 hrs by RT-PCR analysis; assay type: cell-based
[15] = molecular target: Hypoxia-inducible factor 1-alpha (Homo sapiens) (UniProt Q16665); assay: Inhibition of HIF1alpha in human SK-RC-28 cells assessed as reduction in VEGFA expression at 21 uM after 48 hrs by RT-PCR analysis; assay type: cell-based
[16] = Downregulation of actin mRNA expression in human RCC4 cells expressing HIF1alpha and HIF2alpha at 21 uM after 48 hrs by RT-PCr analysis; assay type: ADME, cell-based; conditions: rcc4, 48 h
[17] = molecular target: T1, Endothelial PAS domain-containing protein 1; assay: Inhibition of HIF2alpha in human RCC4 cells coexpressing HIF1alpha assessed as reduction in CCND1 mRNA expression at 21 uM after 48 hrs by RT-PCR analysis; assay type: cell-based
[18] = Downregulation of HIF2alpha mRNA expression in human RCC4 cells at 21 uM after 48 hrs by RT-PCR analysis; assay type: functional, cell-based
[19] = molecular target: T1, Endothelial PAS domain-containing protein 1; assay: Inhibition of HIF2alpha in human RCC4 cells coexpressing HIF1alpha assessed as reduction in TGFalpha mRNA expression at 21 uM after 48 hrs by RT-PCR analysis; assay type: cell-based
786-0 [20] = assay: Cytotoxicity against human 786-0 cells expressing HIF2alpha after 2 days by XTT assay; assay type: functional, cell-based; conditions: 786-0, 48 h
[21] = molecular target: T1, Endothelial PAS domain-containing protein 1; assay: Inhibition of HIF2alpha in human 786-0 cells assessed as reduction in VEGFA expression at 21 uM after 48 hrs by RT-PCR analysis; assay type: cell-based
[22] = Downregulation of HIF1alpha mRNA expression in human RCC4 cells at 21 uM after 48 hrs by RT-PCR analysis; assay type: functional, cell-based
[23] = Downregulation of TGFalpha mRNA expression in human SK-RC-28 cells at 21 uM after 48 hrs by RT-PCR analysis; assay type: functional, cell-based
[24] = molecular target: T1, Endothelial PAS domain-containing protein 1; assay: Inhibition of HIF2alpha in human 786-0 cells expressing truncated HIF1alpha assessed as reduction in luciferase activity after 24 hrs by reporter gene assay; assay type: cell-based
[25] = molecular target: T1, Endothelial PAS domain-containing protein 1; assay: Inhibition of HIF2alpha in human 786-0 cells assessed as reduction in CCND1 mRNA expression at 21 uM after 48 hrs by RT-PCR analysis; assay type: cell-based
[26] = Downregulation of HIF2alpha mRNA expression in human SK-RC-28 cells at 21 uM after 48 hrs by RT-PCR analysis; assay type: functional, cell-based
[27] = molecular target: T1, Endothelial PAS domain-containing protein 1; assay: Inhibition of HIF2alpha in human 786-0 cells assessed as reduction in TGFalpha mRNA expression at 21 uM after 48 hrs by RT-PCR analysis; assay type: cell-based
786-0 [28] = assay: Downregulation of carbonic anhydrase 9 expression in human 786-0 cells at 21 uM after 48 hrs by RT-PCR analysis; assay type: functional, cell-based

C1=C/[C@H]2[C@@H]3CCCC[C@H]3C[C@@H]2NCCCN[C@@H]2C[C@@H]3CCCC[C@H]3[C@@H]2/C=C/1 [HALICLONADIAMINE]
50%: inhibition (786-0 [4])
Toxic: Activity (786-0 [5]) | Activity [13] | Activity [16]
16.1 µM: IC50 [6]
14.8 µM: EC50 [24]
15.1 µM: IC50 (786-0 [20])
active: Activity (786-0 [1]) | Activity (786-0 [2]) | Activity [3] | inhibition [7] | inhibition [8] | Activity [9] | inhibition [10] | Activity [11] | inhibition [12] | inhibition [14] | inhibition [15] | inhibition [17] | Activity [18] | inhibition [19] | inhibition [21] | Activity [22] | Activity [23] | inhibition [25] | Activity [26] | inhibition [27] | Activity (786-0 [28])
20%: inhibition at 48 h, 20 µM (total protein expression)
